The test system of one data set is Colinus virginianus. To be noted: for LC50 / LD50: acute, oral, mortality; for LC50: diet.
For another data set, the system named is Anabaena flosaquae. To be noted: acute; duration: 72 hours.
The next data set concerns Daphnia magna. To be noted: chronic/long-term; duration: 21 days; reproduction.
For a further data set, the system named is Pimephales promelas. To be noted: chronic/long-term; duration: 255 days; growth.
The next data set relates to Skeletonema costatum. To be noted: acute; duration: 72 hours; growth.
The test system of another data set is Tagia sp. To be noted: acute; duration: 14 days; mortality.
The subject of the next data set is Oncorhynchus mykiss. To be noted: chronic/long-term; duration: 85 days; growth.
The next data set relates to Anas platyrhynchos. To be noted: reproductive.
The subject of another data set is Oryctolagus sp. To be noted: repeat dose other; mortality.
Another data set concerns Apis mellifera. The note with it: acute, mortality.
The subject of a further data set is Danio rerio. To be noted: short-term; duration: 168 hours; growth.

2 molecules from EPA's ToxValDB 9.5 (doi:10.2903/j.efsa.2015.4302) can be followed below.

As for `NCP(=O)(O)O` [Aminomethylphosphonic acid], in the data set with Colinus virginianus, the LC50 is > 5620 mg/kg-day and the LD50 is > 2250 mg/kg-day.
Usually NOAEL stands for the highest tested level that showed no adverse finding. For the molecule `O=C(O)CNCP(=O)(O)O` [Glyphosate], the NOEC turned out to be 12 mg/L in the data set with Anabaena flosaquae; 12.5 mg/L with Daphnia magna; 25.7 mg/L in the data set on Pimephales promelas; 1.82 mg/L in the data set with Skeletonema costatum; 9.6 mg/L in the data set on Oncorhynchus mykiss; 1 mg/L with Danio rerio. In addition, the values for the LC50 with Tagia sp. and with Colinus virginianus were 5600 mg/kg and > 5200 mg/kg-day, respectively. In addition, the NOEL in the data set on Anas platyrhynchos amounted to 125 mg/kg-day; in the data set on Colinus virginianus (reproduction developmental) it was 96.3 mg/kg-day. Also, the no-observed-adverse-effect level (NOAEL) in the data set on Oryctolagus sp. is 50 mg/kg-day; with Rattus norvegicus (chronic) it was 197 mg/kg-day. Further, the LD50 with Apis mellifera (dermal) was > 100 µg/piece; in the data set with Apis mellifera (oral, unspecified), 100 µg/piece; with Rattus norvegicus (acute, mortality), > 2000 mg/kg-day; in the data set with Colinus virginianus, 4330 mg/kg-day.
